Measurements: the NIST ThermoML archive (doi:10.1016/j.jct.2006.03.014)

Experiment: xn = mol fraction of the nth substance listed
Conditions: 101 kPa, Liquid; for viscosity: Capillary tube (Ostwald / Ubbelohde) method; for mass density: Pycnometric method

CC1OC(C)OC(C)O1 (stereo unspecified) [2,4,6-trimethyl-1,3,5-trioxane] + CCCCOC(C)=O
Conditions | mass density, 298.15 K [kg/m3] | mass density, 303.15 K [kg/m3] | mass density, 308.15 K [kg/m3] | viscosity, 298.15 K [mPa·s] | viscosity, 303.15 K [mPa·s] | viscosity, 308.15 K [mPa·s]
x1 = 0.0186 | 878.3 | 873.2 | 868.2 | 0.688 | 0.637 | 0.581
x1 = 0.0368 | 880.3 | 875.1 | 870.1 | 0.693 | 0.641 | 0.586
x1 = 0.0556 | 882.3 | 877.1 | 872 | 0.696 | 0.646 | 0.588
x1 = 0.0744 | 884.3 | 879.1 | 874 | 0.697 | 0.65 | 0.592
x1 = 0.093 | 886.3 | 881 | 875.9 | 0.699 | 0.653 | 0.594
x1 = 0.1873 | 896.5 | 891.1 | 885.7 | 0.713 | 0.668 | 0.612
x1 = 0.2831 | 906.9 | 901.4 | 895.9 | 0.728 | 0.685 | 0.629
x1 = 0.3807 | 917.7 | 912 | 906.4 | 0.755 | 0.706 | 0.649
x1 = 0.4799 | 928.6 | 922.9 | 917.2 | 0.786 | 0.735 | 0.676
x1 = 0.5802 | 939.8 | 934.1 | 928.2 | 0.831 | 0.771 | 0.708
x1 = 0.6828 | 951.5 | 945.7 | 939.7 | 0.882 | 0.816 | 0.746
x1 = 0.7863 | 963.2 | 957.6 | 951.4 | 0.945 | 0.867 | 0.793
x1 = 0.8924 | 975.6 | 969.9 | 963.7 | 1.025 | 0.933 | 0.848
x1 = 1 | 988.4 | 982.6 | 976.4 | 1.107 | 1.001 | 0.907

CC1OC(C)OC(C)O1 (stereo unspecified) [2,4,6-trimethyl-1,3,5-trioxane] + CCOC(C)=O
Conditions | mass density, 298.15 K [kg/m3] | mass density, 303.15 K [kg/m3] | mass density, 308.15 K [kg/m3] | viscosity, 298.15 K [mPa·s] | viscosity, 303.15 K [mPa·s] | viscosity, 308.15 K [mPa·s]
x1 = 0.0203 | 896.3 | 890 | 883.7 | 0.435 | 0.405 | 0.392
x1 = 0.04 | 898.7 | 892.4 | 886 | 0.439 | 0.411 | 0.395
x1 = 0.0601 | 901.1 | 894.8 | 888.5 | 0.446 | 0.419 | 0.4
x1 = 0.0799 | 903.5 | 897.2 | 890.8 | 0.451 | 0.421 | 0.407
x1 = 0.1002 | 905.8 | 899.6 | 893.2 | 0.457 | 0.428 | 0.412
x1 = 0.1957 | 916.6 | 910.4 | 904 | 0.491 | 0.455 | 0.439
x1 = 0.3 | 927.8 | 921.6 | 915.2 | 0.53 | 0.492 | 0.468
x1 = 0.4 | 937.9 | 931.8 | 925.4 | 0.567 | 0.53 | 0.503
x1 = 0.5001 | 947.4 | 941.3 | 935 | 0.61 | 0.574 | 0.539
x1 = 0.6001 | 956.4 | 950.4 | 944.1 | 0.663 | 0.628 | 0.586
x1 = 0.7 | 965 | 959 | 952.7 | 0.739 | 0.691 | 0.639
x1 = 0.8001 | 973.1 | 967.3 | 960.9 | 0.832 | 0.766 | 0.708
x1 = 0.9 | 980.9 | 975.1 | 968.8 | 0.947 | 0.861 | 0.789
x1 = 1 | 988.4 | 982.6 | 976.4 | 1.107 | 1.001 | 0.907

CC1OC(C)OC(C)O1 (stereo unspecified) [2,4,6-trimethyl-1,3,5-trioxane] + COC(C)=O
Conditions | mass density, 298.15 K [kg/m3] | mass density, 303.15 K [kg/m3] | mass density, 308.15 K [kg/m3] | viscosity, 298.15 K [mPa·s] | viscosity, 303.15 K [mPa·s] | viscosity, 308.15 K [mPa·s]
x1 = 0.0203 | 928.4 | 921.5 | 918 | 0.378 | 0.359 | 0.345
x1 = 0.0405 | 930.1 | 923.3 | 919.7 | 0.388 | 0.367 | 0.35
x1 = 0.0601 | 931.8 | 925 | 921.4 | 0.398 | 0.373 | 0.355
x1 = 0.0807 | 933.4 | 926.7 | 923.1 | 0.408 | 0.38 | 0.359
x1 = 0.1002 | 935 | 928.4 | 924.7 | 0.416 | 0.386 | 0.362
x1 = 0.201 | 942.9 | 936.6 | 932.6 | 0.455 | 0.41 | 0.372
x1 = 0.3009 | 950.3 | 944.2 | 939.8 | 0.489 | 0.429 | 0.374
x1 = 0.397 | 956.9 | 951 | 946.3 | 0.522 | 0.45 | 0.377
x1 = 0.5001 | 963.5 | 957.7 | 952.7 | 0.566 | 0.481 | 0.39
x1 = 0.7002 | 974.8 | 969.1 | 963.5 | 0.696 | 0.593 | 0.479
x1 = 0.8005 | 979.8 | 974 | 968.2 | 0.795 | 0.688 | 0.57
x1 = 0.9001 | 984.3 | 978.5 | 972.5 | 0.925 | 0.816 | 0.704
x1 = 1 | 988.4 | 982.6 | 976.4 | 1.107 | 1.001 | 0.907
